Measurements taken from ChEMBL document CHEMBL1201862, “PubChem BioAssay data set” (2004).
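Values below derive from 48-hour exposures of cells grown in 96-well plates, with endpoints linearly interpolated between the two concentrations bracketing the appropriate inhibition level. GI50 = concentration required for 50% inhibition of growth.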 Active and inactive are the calls of the source. Rule as the data show it: active = GI50 up to about 1.1 µM and inactive = higher.

What was measured:
Experiment in all cases: inhibition of tumour cell growth, NCI panel, 48 h
HL-60 = system: HL-60
NCI-H23 = system: NCI-H23
NCI-H226 = system: NCI-H226
COLO 205 = system: COLO 205
MCF7 = system: MCF7
HCC 2998 = system: HCC 2998
UACC-257 = system: UACC-257
LOX IMVI = system: LOX IMVI
SF-295 = system: SF-295
SNB-75 = system: SNB-75
BT-549 = system: BT-549
TK-10 = system: TK-10
A549 = system: A549
UACC-62 = system: UACC-62
786-0 = system: 786-0
DU-145 = system: DU-145
KM12 = system: KM12
T47D = system: T47D
NCI/ADR-RES = system: NCI/ADR-RES

Row | Compound | GI50 (HL-60) | GI50 (NCI-H23) | GI50 (NCI-H226) | GI50 (COLO 205) | GI50 (MCF7) | GI50 (HCC 2998) | GI50 (UACC-257) | GI50 (LOX IMVI) | GI50 (SF-295) | GI50 (SNB-75) | GI50 (BT-549) | GI50 (TK-10) | GI50 (A549) | GI50 (UACC-62) | GI50 (786-0) | GI50 (DU-145) | GI50 (KM12) | GI50 (T47D) | GI50 (NCI/ADR-RES)
1 | COc1cc(C2c3cc4c(cc3OC(O)C2C)OCO4)cc(OC)c1O (centres undefined) | 2.92 µM (inactive) | 28.8 µM (inactive) | 17 µM (inactive) | 18.2 µM (inactive) | 4.4 µM (inactive) | 10.9 µM (inactive) | 48.5 µM (inactive) | 8.67 µM (inactive) | 3.92 µM (inactive) | 3.29 µM (inactive) | 7.26 µM (inactive) | 6.95 µM (inactive) | 7.64 µM (inactive) | 3.49 µM (inactive) | 8.89 µM (inactive) | 23.5 µM (inactive) | 4.76 µM (inactive) | 7.64 µM (inactive) | 3.49 µM (inactive)
2 | CCCCCCCCCCCNC=O | 15.1 µM (inactive) | 44.5 µM (inactive) | 94.6 µM (inactive) | 49.3 µM (inactive) | 37.9 µM (inactive) | 24.4 µM (inactive) | 32.4 µM (inactive) | 51.9 µM (inactive) | 36.9 µM (inactive) | 50.8 µM (inactive) | 21.8 µM (inactive) | 37.7 µM (inactive) | 51.3 µM (inactive) | 51.2 µM (inactive) | > 100 µM (inactive) | 84.7 µM (inactive) | 45.3 µM (inactive) | 39.2 µM (inactive) | 30.6 µM (inactive)
3 | CN(C)c1ccc(C(=NN)c2ccc(N(C)C)cc2)cc1 | 0.322 µM (active) | 1.46 µM (inactive) | 3.52 µM (inactive) | 0.344 µM (active) | 0.573 µM (active) | 0.551 µM (active) | 0.203 µM (active) | 0.966 µM (active) | 0.449 µM (active) | 0.401 µM (active) | 1.77 µM (inactive) | 0.557 µM (active) | 1.3 µM (inactive) | 0.506 µM (active) | 4.8 µM (inactive) | 2.2 µM (inactive) | 0.358 µM (active) | 1.66 µM (inactive) | 0.179 µM (active)
4 | CCOc1nc(N)nc(C)c1/N=N/c1ccc(Cl)cc1 | > 100 µM (inactive) | > 100 µM (inactive) | 20.6 µM (inactive) | > 100 µM (inactive) | > 100 µM (inactive) | – | > 100 µM (inactive) | > 100 µM (inactive) | 25.5 µM (inactive) | > 100 µM (inactive) | 59 µM (inactive) | > 100 µM (inactive) | > 100 µM (inactive) | 94.4 µM (inactive) | > 100 µM (inactive) | > 100 µM (inactive) | > 100 µM (inactive) | 73.8 µM (inactive) | > 100 µM (inactive)
5 | Cc1ccc(S(=O)(=O)c2c(O)c3ccc(O)c(C)c3oc2=O)cc1 | 23.4 µM (inactive) | > 100 µM (inactive) | > 100 µM (inactive) | > 100 µM (inactive) | > 100 µM (inactive) | > 100 µM (inactive) | > 100 µM (inactive) | – | > 100 µM (inactive) | > 100 µM (inactive) | > 100 µM (inactive) | > 100 µM (inactive) | > 100 µM (inactive) | > 100 µM (inactive) | > 100 µM (inactive) | > 100 µM (inactive) | > 100 µM (inactive) | > 100 µM (inactive) | > 100 µM (inactive)
6 | CCCCCCCCCCCCCCCCP(=O)(O)OP(=O)(O)OCC1OC(n2cnc3c(N)ncnc32)C(O)C1O (centres undefined) | 35.4 µM (inactive) | 26.8 µM (inactive) | 20.9 µM (inactive) | 32.7 µM (inactive) | 22.6 µM (inactive) | 22.5 µM (inactive) | 23.7 µM (inactive) | 27.4 µM (inactive) | – | 20.5 µM (inactive) | 42.4 µM (inactive) | 15.6 µM (inactive) | 33.5 µM (inactive) | 24.3 µM (inactive) | 22.8 µM (inactive) | 46.9 µM (inactive) | 26.1 µM (inactive) | 82.6 µM (inactive) | 31.1 µM (inactive)
7 | Clc1ccc(COC(Cn2ccnc2)c2ccc(Cl)cc2Cl)cc1 (centres undefined) [ECONAZOLE] | 6.87 µM (inactive) | 13.1 µM (inactive) | – | 11.5 µM (inactive) | 12.4 µM (inactive) | 14.6 µM (inactive) | 13.1 µM (inactive) | 6.98 µM (inactive) | 10.8 µM (inactive) | 13.7 µM (inactive) | 18.9 µM (inactive) | 14 µM (inactive) | 11.2 µM (inactive) | 12.1 µM (inactive) | 13.1 µM (inactive) | 16.5 µM (inactive) | 14 µM (inactive) | 6.9 µM (inactive) | 4.44 µM (inactive)
